Reference: ChEMBL document CHEMBL5120862, “Novel non-covalent LSD1 inhibitors endowed with anticancer effects in leukemia and solid tumor cellular models” (Eur J Med Chem, 2022)
The source made the active and inactive calls. No cut-off for these calls is given here.

Assays:
SJRH30 [1] = assay: Antiproliferative activity against human Rh30 cells assessed as inhibition of cell growth incubated for 72 hrs; format: functional, cell-based; conditions: SJRH30, 72 h
MDA-MB-231 = assay: Antiproliferative activity against human MDA-MB-231 cells assessed as inhibition of cell growth measured after 72 hrs by MTT assay; format: functional, cell-based; conditions: MDA-MB-231, 72 h
RD [2] = assay: Antiproliferative activity against human RD cells assessed as inhibition of cell growth incubated for 144 hrs; format: functional, cell-based
RD [3] = assay: Antiproliferative activity against human RD cells assessed as inhibition of cell growth incubated for 24 hrs; format: functional, cell-based
THP-1 [4] = assay: Antiproliferative activity against human THP-1 cells assessed as inhibition of cell growth incubated for 72 hrs by CellTiter-Glo luminescent cell viability assay; format: functional, cell-based; conditions: THP-1, 72 h
RD [5] = assay: Antiproliferative activity against human RD cells assessed as reduction in live cells at 3.5 uM incubated for 72 hrs by calceinAM/propidium iodide staining based fluorescence microscopy; format: functional, cell-based
SJRH30 [6] = assay: Antiproliferative activity against human Rh30 cells assessed as inhibition of cell growth incubated for 24 hrs; format: functional, cell-based; conditions: SJRH30, 24 h
SJRH30 [7] = assay: Antiproliferative activity against human Rh30 cells assessed as inhibition of cell growth incubated for 144 hrs; format: functional, cell-based; conditions: SJRH30, 144 h
THP-1 [8] = assay: Antiproliferative activity against human THP-1 cells assessed as inhibition of cell growth incubated for 144 hrs by CellTiter-Glo luminescent cell viability assay; format: functional, cell-based; conditions: THP-1, 144 h
SJRH30 [9] = assay: Antiproliferative activity against human Rh30 cells assessed as reduction in live cells at 3.5 uM incubated for 24 hrs by calceinAM/propidium iodide staining based fluorescence microscopy; format: functional, cell-based
RD [10] = assay: Antiproliferative activity against human RD cells assessed as inhibition of cell growth incubated for 72 hrs; format: functional, cell-based
SJRH30 [11] = assay: Induction of apoptosis in human Rh30 cells assessed as increase in caspase 3/7 level at 3.5 uM incubated for 24 hrs; format: functional, cell-based
THP-1 [12] = assay: Antiproliferative activity against human THP-1 cells assessed as inhibition of cell growth incubated for 24 hrs by CellTiter-Glo luminescent cell viability assay; format: functional, cell-based; conditions: THP-1, 24 h
[13] = target: T1, N-lysine methyltransferase KMT5A (Homo sapiens, UniProt Q9NQR1); assay: Inhibition of SETD8 (unknown origin) using [3H]SAM and HeLa nucleosomes as substrates incubated for 1 hr
T1 sequence (Q9NQR1 whole entry): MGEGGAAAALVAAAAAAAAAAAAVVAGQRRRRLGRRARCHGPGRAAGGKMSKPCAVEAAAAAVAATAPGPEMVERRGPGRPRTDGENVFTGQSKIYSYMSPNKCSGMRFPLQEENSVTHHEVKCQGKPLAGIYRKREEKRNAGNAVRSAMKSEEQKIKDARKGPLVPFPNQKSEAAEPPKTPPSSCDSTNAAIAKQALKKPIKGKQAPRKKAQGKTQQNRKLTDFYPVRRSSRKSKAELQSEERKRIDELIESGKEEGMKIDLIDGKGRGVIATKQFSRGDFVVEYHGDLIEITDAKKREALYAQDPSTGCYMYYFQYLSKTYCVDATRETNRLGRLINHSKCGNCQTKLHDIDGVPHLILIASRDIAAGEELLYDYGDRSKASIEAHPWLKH

[14] = target: T2, N-lysine methyltransferase KMT5A (Homo sapiens) (UniProt Q9NQR1); assay: Inhibition of SETD8 (unknown origin) using [3H]SAM and HeLa nucleosomes as substrates at 100 uM incubated for 1 hr relative to control
T2 sequence (whole entry): T1 sequence (Q9NQR1 whole entry)

RD [15] = assay: Antiproliferative activity against human RD cells assessed as reduction in live cells at 10 uM incubated for 72 hrs by calceinAM/propidium iodide staining based fluorescence microscopy; format: functional, cell-based
SJRH30 [16] = assay: Antiproliferative activity against human Rh30 cells assessed as reduction in live cells at 10 uM incubated for 24 hrs by calceinAM/propidium iodide staining based fluorescence microscopy; format: functional, cell-based
LSD1/CoREST complex [17] = target: T3, LSD1/CoREST complex (Homo sapiens, UniProt O60341); assay: Inhibition of human LSD1/CoREST using histone H3 peptide as substrate by fluorescence polarization assay; format: protein-complex assay
LSD1/CoREST complex [18] = target: T3, LSD1/CoREST complex; assay: Binding affinity to human LSD1/CoREST assessed as dissociation constant by competitive fluorescence polarization assay; format: protein-complex assay
SJRH30 [19] = assay: Induction of apoptosis in human Rh30 cells assessed as increase in caspase 3/7 level at 10 uM incubated for 24 hrs; format: functional, cell-based

COc1cc2c(NC3CCN(C(C)C)CC3)nc(C3CCCCC3)nc2cc1OCCCN1CCCC1
IC50 (SJRH30 [1]): 2.64 µM
IC50 (MDA-MB-231): 3.56 µM
IC50 (RD [2]): 2.91 µM
IC50 (RD [3]): 11.2 µM
IC50 (THP-1 [4]): 0.34 µM
Activity (RD [5]): Active
IC50 (SJRH30 [6]): 5.01 µM
IC50 (SJRH30 [7]): 2.48 µM
IC50 (THP-1 [8]): 0.24 µM
Activity (SJRH30 [9]): Active
IC50 (RD [10]): 3.05 µM
Activity (SJRH30 [11]): Active
IC50 (THP-1 [12]): 0.84 µM

Cc1ccc(NC2=CC(=O)c3sc(C)nc3C2=O)cc1
IC50 [13]: 0.37 µM
inhibition [14]: 91.6%

Cc1ccc(-c2ncc(OC[C@@H]3CCNC3)cc2-c2ccc(C#N)cc2)cc1
IC50 (SJRH30 [1]): 10.7 µM
IC50 (RD [2]): 10.2 µM
Activity (RD [15]): Active
Activity (SJRH30 [16]): Active
IC50 (RD [3]): 12.3 µM
IC50 (SJRH30 [6]): 9.93 µM
IC50 (SJRH30 [7]): 10.3 µM
Ki (LSD1/CoREST complex [17]): 0.035 µM
Kd (LSD1/CoREST complex [18]): 0.014 µM
IC50 (RD [10]): 11.4 µM
Activity (SJRH30 [19]): Active
